Assay results taken from patent publication US20250134867A1, “METHOD FOR MODULATING LIPID METABOLISM, AMELIORATING NON-ALCOHOLIC FATTY LIVER DISEASE AND METABOLIC SYNDROME BY USING 6-METHOXYBENZOXAZOLINONE” (Taichung District Agricultural Research and Extension …, priority 2023, published 2025).

Columns and labels:
Type in all cases: in vivo
[1] = system: HFD-induced obese C57BL/6J mice; assay: Fat deposition (eWAT) and serum lipid levels in HFD-induced obese mice; conditions: 12 weeks oral; for HFD-induced increase in the mass of eWAT / serum LDL-C / serum HDL cholesterol (HDL-C) / serum total cholesterol (TC) / serum triglyceride (TG): HFD mice; for HFD-induced increase in the mass of eWAT: CX 10 and 30 mg/kg/day, EGCG 30 mg/kg/day; for serum LDL-C: calculated as (TC)-(HDL-C)-(TG/5); for serum HDL cholesterol (HDL-C) / serum total cholesterol (TC) / serum triglyceride (TG): vs HFD group; for adipocyte diameters: compared with the HFD group
Source text: The animals used in the examples are described below. 5-week-old male C57BL/6J mice were purchased from The National Laboratory Animal Center, Taipei, Taiwan and were maintained in a temperature-controlled room on a 12-h light-dark cycle. They were housed with four per cage and had free access to food and drinking water. Mice fed with a standard diet and adapted to the environment for 1 week were subsequently divided randomly into five groups. The ND group (n=8) continued on the same diet, whereas the other four groups (n=8 per group) were switched to the HFD (494 kcal/100 g, 45% energy as fat; TestDiet Inc., USA). Among the four HFD groups, three groups started to receive CX at 10 mg/kg/day (CX10 group), CX at 30 mg/kg/day (CX30 group), and epigallocatechin gallate (EGCG) (Sigma, Inc., USA) at 30 mg/kg/day (EGCG30 group) by oral gavage. EGCG was suspended in 0.5% methylcellulose solution for oral administration. Food consumption and weight gain were measured daily and weekly, respectively. After 12 weeks, all mice were sacrificed. Serum samples, liver tissue, epididymis adipose tissue and feces were harvested for further analysis. The experimental protocol was approved by the Animal Research Committee of the National Yang Ming Chiao Tung University (IACUC no. 1091013), and all procedures followed The Guide for the Care and Use of Laboratory Animals (NIH publication, 85-23, revised 1996) and the guidelines of the Animal Welfare Act, Taiwan. The procedure regarding immunohistochemical tissue characterization is as follows. During dissection of the mice, epididymis adipose tissue and liver were isolated, weighed, and subsequently fixed in 10% paraformaldehyde in PBS. After overnight fixation, tissues were embedded in paraffin for hematoxylin and eosin (H&E) staining. All specimens were observed microscopically (Carl Zeiss Inc., Germany) at 200× magnification. […] The procedure regarding biochemical characterization is as follows. The serum triglyceride (TG), total cholesterol (TC), high-density lipoprotein-cholesterol (HDL-C), glutamic oxaloacetic transaminase (GOT), glutamic pyruvic transaminase (GPT), albumin (ALB), uric acid (UA), and creatinine (CRE) levels were measured using enzymatic assay kits with a FUJI DRI-CHEM analyzer (Fujifilm, Tokyo, Japan). The LDL-C level was calculated as [(TC)-(HDL-C)-(TG/5)].

[2] = system: HFD-induced obese C57BL/6J mice; assay: Renal function markers in HFD-induced obese mice; conditions: for serum CRE level, difference to ND group: 30 mg/kg/day oral, CX30, ND and EGCG groups compared; for serum CRE level, difference to ND group / serum uric acid (UA) level, difference to ND group: 12 weeks; for serum uric acid (UA) level, difference to ND group: CX 10-30 mg/kg/day, EGCG 30 mg/kg/day oral, compared with ND group
Source text: (§1) The animals used in the examples are described below. 5-week-old male C57BL/6J mice were purchased from The National Laboratory Animal Center, Taipei, Taiwan and were maintained in a temperature-controlled room on a 12-h light-dark cycle. They were housed with four per cage and had free access to food and drinking water. Mice fed with a standard diet and adapted to the environment for 1 week were subsequently divided randomly into five groups. The ND group (n=8) continued on the same diet, whereas the other four groups (n=8 per group) were switched to the HFD (494 kcal/100 g, 45% energy as fat; TestDiet Inc., USA). Among the four HFD groups, three groups started to receive CX at 10 mg/kg/day (CX10 group), CX at 30 mg/kg/day (CX30 group), and epigallocatechin gallate (EGCG) (Sigma, Inc., USA) at 30 mg/kg/day (EGCG30 group) by oral gavage. EGCG was suspended in 0.5% methylcellulose solution for oral administration. Food consumption and weight gain were measured daily and weekly, respectively. After 12 weeks, all mice were sacrificed. Serum samples, liver tissue, epididymis adipose tissue and feces were harvested for further analysis. The experimental protocol was approved by the Animal Research Committee of the National Yang Ming Chiao Tung University (IACUC no. 1091013), and all procedures followed The Guide for the Care and Use of Laboratory Animals (NIH publication, 85-23, revised 1996) and the guidelines of the Animal Welfare Act, Taiwan. The procedure regarding biochemical characterization is as follows. The serum triglyceride (TG), total cholesterol (TC), high-density lipoprotein-cholesterol (HDL-C), glutamic oxaloacetic transaminase (GOT), glutamic pyruvic transaminase (GPT), albumin (ALB), uric acid (UA), and creatinine (CRE) levels were measured using enzymatic assay kits with a FUJI DRI-CHEM analyzer (Fujifilm, Tokyo, Japan). The LDL-C level was calculated as [(TC)-(HDL-C)-(TG/5)].

[3] = system: HFD-induced obese C57BL/6J mice; assay: Body weight gain, food intake and food efficiency ratio in HFD-induced obese mice; conditions: vs HFD group; for food efficiency ratio (FER): 12 weeks; for body weight gain: HFD mice, oral gavage 12 weeks, CX 10 and 30 mg/kg/day, EGCG 30 mg/kg/day
Source text: as §1, with “To determine the effect of CX (Sigma, Inc., USA) on obesity and non-alcoholic fatty liver disease (NAFLD) in vivo, we established an experimental approach using HFD-induced obese C57BL/6J mice. CX was suspended in 0.5% methylcellulose solution for oral administration. The animals” for “The animals”, “Act, Taiwan.” for “Act, Taiwan. The procedure regarding biochemical characterization is as follows. The serum triglyceride (TG), total cholesterol (TC), high-density lipoprotein-cholesterol (HDL-C), glutamic oxaloacetic transaminase (GOT), glutamic pyruvic transaminase (GPT), albumin (ALB), uric acid (UA), and creatinine (CRE) levels were measured using enzymatic assay kits with a FUJI DRI-CHEM analyzer (Fujifilm, Tokyo, Japan). The LDL-C level was calculated as [(TC)-(HDL-C)-(TG/5)].”

[4] = CX treatment vs HFD group, 12 weeks oral

Row | Compound | HFD-induced increase in the mass of eWAT [1] | serum LDL-C [1] | serum HDL cholesterol (HDL-C) [1] | serum total cholesterol (TC) [1] | serum triglyceride (TG) [1] | adipocyte diameters [1] | serum CRE level, difference to ND group [2] | serum uric acid (UA) level, difference to ND group [2] | serum creatinine (CRE) level [2, 4] | serum uric acid (UA) level [2, 4] | food efficiency ratio (FER) ([3]; 10 mg/kg/day oral gavage) | food efficiency ratio (FER) ([3]; 30 mg/kg/day oral gavage) | body weight gain [3]
1 | COc1ccc2[nH]c(=O)oc2c1 [CX, 6-methoxybenzoxazolinone] | ameliorated | somewhat ameliorated | did not differ significantly from the HFD group | significantly lower than the HFD group | significantly lower than the HFD group | lower cell diameters and smaller cell size | no significant difference | no significant difference | decreased | decreased | greatly reduced | greatly reduced | significantly prevented body weight gain
2 | O=C(O[C@@H]1Cc2c(O)cc(O)cc2O[C@@H]1c1cc(O)c(O)c(O)c1)c1cc(O)c(O)c(O)c1 [EGCG, epigallocatechin gallate, reference compound] | ameliorated | somewhat ameliorated | did not differ significantly from the HFD group | significantly lower than the HFD group | significantly lower than the HFD group | lower cell diameters and smaller cell size | no significant difference | no significant difference | – | – | – | – | significantly prevented body weight gain
